Assay results taken from patent US6805865B1, “Compositions and methods for treating cancer and hyperproliferative disorders” (EntreMed, Inc., priority 1993, dated 2004).

Assays:
[1] = system: HUVEC; assay: bFGF stimulated HUVEC proliferation in the presence of bFGF peptides; format: cell-based; conditions: free synthetic peptide, in vitro
[2] = system: B16BL6 melanoma; assay: Growth of B16BL6 tumor cells in vitro with peptide and bFGF (cell counts); format: cell-based, murine; conditions: 10,000 cells/well, various peptide concentrations, media with 5 ng/ml bFGF
Procedure: B16BL6 melanoma were plated at 10,000 cells/well in a 24 well plate and incubated overnight. […] This example provides methods useful for selecting peptides useful for the methods and compositions of the present invention.

[3] = system: bFGF; assay: Serum antibody response (ELISA) after vaccination with bFGF peptides conjugated to lipid A liposomes; format: in vivo; conditions: C57BL/6J mice, peptide covalently conjugated to liposomal vesicles containing lipid A
Text: Both peptides A and B were incorporated into lipid A containing liposomes and used separately in a vaccination protocol. Peptides were conjugated to liposomes according to the methods and protocols described above in Example 8. Mice were immunized and boosted twice, bled and pooled serum analyzed for anti-peptide antibody titer and crossreactivity to bFGF by ELISA.
The comparison of titers and crossreactivity for serum from mice vaccinated with whole bFGF or with the liposomal heparin binding domain peptide of bFGF vaccine is shown in FIG. 4 and a comparison of the titers and crossreactivity for serum from mice vaccinated with whole bFGF or the liposomal receptor binding domain peptide of bFGF vaccine is shown in FIG. 5.

[4] = system: bFGF-induced vascularization; assay: bFGF-containing gelatin sponge implanted on liver of vaccinated mice, histology; format: in vivo; conditions: peptide-liposome vaccinated mice, sponge with recombinant human bFGF on liver, 14 days after implantation
Text: Following the vaccination protocol, mice were challenged with bFGF impregnated sponges and neovascularization assessed after 14 days, the results are shown in FIG. 6.
In order to determine if generation of antibody to the bFGF molecule has an effect on bFGF-induced vascularization, gelatin sponges containing recombinant human bFGF were implanted onto the left lobe of the liver of mice following vaccination with the liposomal lipid A controls, liposomes containing the heparin binding domain peptide, liposome containing the receptor binding domain peptide, or PBS. Fourteen days following implantation, the sponges were removed. Vascularity and leukocyte infiltration were assessed histologically. Well defined blood vessels containing red blood cells were evident in sponges removed from mice vaccinated with control preparations (liposomal lipid A and PBS). In addition, there was an abundant amount of cellular infiltration, consisting of white blood cells and fibroblasts. […] Although red blood cells were present in the histological sections of the sponge taken from mice vaccinated with the heparin binding domain peptide, they lacked well defined structures surrounding them.

[5] = system: B16-BL6 melanoma cells; assay: B16-BL6-containing gelatin sponge implanted on liver of vaccinated mice, histology; format: in vivo; conditions: peptide-liposome vaccinated mice, 14 days after implantation
Text: In order to determine if vaccination could inhibit the angiogenesis induced by a tumor, gelatin sponges were implanted containing B16-BL6 melanoma cells onto the liver of mice following vaccination with control liposomes (liposomal lipid A), liposomes linked to the heparin binding domain peptide, liposomes linked to the receptor binding domain peptide, or PBS. Fourteen days following implantation, the sponges are removed and examined histologically. Sponges removed from mice vaccinated with liposomal lipid A and PBS contained viable and proliferating B16BL6 tumor cells. In addition, neovascularization into the sponge was abundant. […] Similar to findings from sponges containing bFGF, there was a tremendous amount of red blood cells lacking defined structures surrounding them.

[6] = system: B16BL6; assay: B16BL6 experimental lung metastasis after intravenous challenge of vaccinated mice; format: in vivo; conditions: peptide conjugated to liposomes, vaccinated and boosted, intravenous melanoma challenge, 14 days
Text: Fourteen days after the mice were vaccinated, boosted, and challenged with B16B16 murine melanoma, the animals were sacrificed and the lungs were removed and numbers of melanotic tumor nodules on the surface were counted.
Two weeks following the final boost , mice were intravenously challenged with B16BL6. Mice were sacrificed at day 14 following challenge. […] The heparin binding domain peptide bFGF covalently linked to liposomes was used as a positive control in this experiment.

[7] = system: LLC-LM; assay: LLC-LM experimental metastatic model, intravenous challenge, lung weight; format: in vivo, mice; conditions: peptide in liposome format, 3 inoculations two weeks apart, day 17, based on lung weight, versus control
Procedure: Efficacy of vaccination of mice with the heparin binding domain peptide bFGF in a liposome format was determined in the LLC-LM experimental metastatic model.
Mice were vaccinated with the heparin binding domain peptide of bFGF in a liposome format using the same vaccination regimen as in the B16BL6 experiments above (3 inoculations two weeks apart). Two weeks following the final boost, mice were intravenously challenged with LLC-LM. At day 17, the control (no treatment) mice began to succumb to the tumor burden in the lung. All groups were sacrificed. Lungs were removed and analyzed based on lung weight. Normal lung weight was subtracted out of the treated and non-treated groups to determine the T/C. Vaccination with the heparin binding domain peptide inhibited the growth and development of LLC-LM experimental metastasis by 94% when compared to control. These lungs have been photographed and will be assessed histologically.

Row | Sequence | bFGF stimulated HUVEC proliferation [1] | bFGF stimulated HUVEC proliferation ([1]; listed as heparin-binding domain peptide) | growth of B16BL6 cells, cell counts [2] | antibody response in serum [3] | cellular infiltration and neovascularization of bFGF sponge [4] | neovascularization and tumor growth in B16-BL6 sponge [5] | mean number of lung metastases [6] | inhibition of growth and development of LLC-LM experimental metastasis [7]
1 | YCKNGGFFLRIHPDGRVDGVREKSDPHIKLQLQAEERGV VSIKGV (YCKNGGFFLRIHPDGRVDGVREKSDPHIKLQLQAEERGVVSIKGV; listed as Homo sapiens) [heparin binding domain peptide, used free or conjugated to lipid A liposomes] | inhibitory effect | inhibited | no significant effect | antibody response | lack of cellular infiltration and neovascularization | blocked neovascularization and caused ablation of tumor growth and development | significantly reduces | 94%
2 | SNNYNTYRSRKYSSWYVALKR (listed as Homo sapiens) [receptor binding domain peptide, used free or conjugated to lipid A liposomes] | inhibited | – | – | no antibody response | – | – | – | –
